How the values were obtained:
[1] = tested on: winter wheat (Vershin variety); assay: Winter wheat seed treatment with BHMPA salts: germinating power (length and mass of roots and sprouts); format: in vivo
Procedure, shortened: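 Seeds (50 per Petri dish on two layers of filter paper) soaked 1 h in BHMPA or its Ca, Mg, Na, Co, Mn, Cu or Zn salts at 1·10^−6-1·10^−12%, with water controls. Germination energy read on day 4, germination on day 8 (wheat) or day 7 (rice, corn), as % means of four replicates. Germinating power taken as root and sprout length plus wet and dry mass per 100 seedlings.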

rice (Diamant variety) = assay: Rice seed treatment with BHMPA salts: germination energy and germination rate; format: in vivo; conditions: for Germination energy / Germination rate: rice
Procedure, shortened: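 Corn, winter wheat and rice seeds (50 per dish, on filter paper) were soaked for 1 h in BHMPA or its metal salts at 1·10^−6-1·10^−12%, with water as control. Germination energy was read on day 4 and germination rate on day 8 for wheat and day 7 for rice and corn, following GOST 12038-84, as the mean of four replicates.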

[2] = comparative study, 1·10^−9% solution
[3] = rice seed treatment, solution 1 · 10^−10%
[4] = comparative study vs Melaphen, 1·10^−8% solution

With `O=P([O-])(CO)CO.O=P([O-])(CO)CO.[Zn+2]` [Zn-salt, Zinc BHMPA Salt] the Length, root ([1]; 1·10^−6% solution) was 9.1 cm, the “Length, root, + % to control” value ([1]; 1·10^−6% solution) was −6% and the Length, sprout ([1]; 1·10^−6% solution) was 6.9 cm. For the same molecule, the “Length, sprout, + % to control” value ([1]; 1·10^−6% solution) was −4%, the Mass, dry, root ([1]; 1·10^−6% solution) was 0.60 g/100 plantlings and the “Mass, dry, root, + % to control” value ([1]; 1·10^−6% solution) was 5%. For the same molecule, the Mass, dry, sprout ([1]; 1·10^−6% solution) was 0.61 g/100 plantlings, the “Mass, dry, sprout, + % to control” value ([1]; 1·10^−6% solution) was −4% and the Mass, wet, root ([1]; 1·10^−6% solution) was 2.58 g/100 plantlings. The “Mass, wet, root, + % to control” value ([1]; 1·10^−6% solution) was 0%, the Mass, wet, sprout ([1]; 1·10^−6% solution) was 4.73 g/100 plantlings and the “Mass, wet, sprout, + % to control” value ([1]; 1·10^−6% solution) was −1%. For the same molecule, the Length, root ([1]; 1·10^−7% solution) was 10.2 cm, the “Length, root, + % to control” value ([1]; 1·10^−7% solution) was 5% and the Length, sprout ([1]; 1·10^−7% solution) was 7.3 cm. For the same molecule, the “Length, sprout, + % to control” value ([1]; 1·10^−7% solution) was 1%, the Mass, dry, root ([1]; 1·10^−7% solution) was 0.62 g/100 plantlings and the “Mass, dry, root, + % to control” value ([1]; 1·10^−7% solution) was 9%. The Mass, dry, sprout ([1]; 1·10^−7% solution) was 0.70 g/100 plantlings, the “Mass, dry, sprout, + % to control” value ([1]; 1·10^−7% solution) was 9% and the Mass, wet, root ([1]; 1·10^−7% solution) was 2.61 g/100 plantlings. For the same molecule, the “Mass, wet, root, + % to control” value ([1]; 1·10^−7% solution) was 1%, the Mass, wet, sprout ([1]; 1·10^−7% solution) was 4.88 g/100 plantlings and the “Mass, wet, sprout, + % to control” value ([1]; 1·10^−7% solution) was 2.5%. The Length, root ([1]; 1·10^−8% solution) was 10.3 cm, the “Length, root, + % to control” value ([1]; 1·10^−8% solution) was 6% and the Length, sprout ([1]; 1·10^−8% solution) was 7.5 cm. For the same molecule, the “Length, sprout, + % to control” value ([1]; 1·10^−8% solution) was 4%, the Mass, dry, root ([1]; 1·10^−8% solution) was 0.64 g/100 plantlings and the “Mass, dry, root, + % to control” value ([1]; 1·10^−8% solution) was 12%. For the same molecule, the Mass, dry, sprout ([1]; 1·10^−8% solution) was 0.77 g/100 plantlings, the “Mass, dry, sprout, + % to control” value ([1]; 1·10^−8% solution) was 20% and the Mass, wet, root ([1]; 1·10^−8% solution) was 2.77 g/100 plantlings. The “Mass, wet, root, + % to control” value ([1]; 1·10^−8% solution) was 7%, the Mass, wet, sprout ([1]; 1·10^−8% solution) was 4.98 g/100 plantlings and the “Mass, wet, sprout, + % to control” value ([1]; 1·10^−8% solution) was 5%. The Length, root ([1]; 1·10^−9% solution) was 10.9 cm, the “Length, root, + % to control” value ([1]; 1·10^−9% solution) was 12% and the Length, sprout ([1]; 1·10^−9% solution) was 7.6 cm. For the same molecule, the “Length, sprout, + % to control” value ([1]; 1·10^−9% solution) was 5.5%, the Mass, dry, root ([1]; 1·10^−9% solution) was 0.69 g/100 plantlings and the “Mass, dry, root, + % to control” value ([1]; 1·10^−9% solution) was 21%. The Mass, dry, sprout ([1]; 1·10^−9% solution) was 0.82 g/100 plantlings, the “Mass, dry, sprout, + % to control” value ([1]; 1·10^−9% solution) was 28% and the Mass, wet, root ([1]; 1·10^−9% solution) was 3.58 g/100 plantlings. The “Mass, wet, root, + % to control” value ([1]; 1·10^−9% solution) was 38%, the Mass, wet, sprout ([1]; 1·10^−9% solution) was 5.13 g/100 plantlings and the “Mass, wet, sprout, + % to control” value ([1]; 1·10^−9% solution) was 8%. For the same molecule, the Length, root ([1]; 1·10^−10% solution) was 10.8 cm, the “Length, root, + % to control” value ([1]; 1·10^−10% solution) was 11% and the Length, sprout ([1]; 1·10^−10% solution) was 7.6 cm. The “Length, sprout, + % to control” value ([1]; 1·10^−10% solution) was 5.5%, the Mass, dry, root ([1]; 1·10^−10% solution) was 0.65 g/100 plantlings and the “Mass, dry, root, + % to control” value ([1]; 1·10^−10% solution) was 14%. For the same molecule, the Mass, dry, sprout ([1]; 1·10^−10% solution) was 0.80 g/100 plantlings, the “Mass, dry, sprout, + % to control” value ([1]; 1·10^−10% solution) was 25% and the Mass, wet, root ([1]; 1·10^−10% solution) was 3.24 g/100 plantlings. For the same molecule, the “Mass, wet, root, + % to control” value ([1]; 1·10^−10% solution) was 25%, the Mass, wet, sprout ([1]; 1·10^−10% solution) was 4.96 g/100 plantlings and the “Mass, wet, sprout, + % to control” value ([1]; 1·10^−10% solution) was 4%. For the same molecule, the Length, root ([1]; 1·10^−11% solution) was 10.3 cm, the “Length, root, + % to control” value ([1]; 1·10^−11% solution) was 6% and the Length, sprout ([1]; 1·10^−11% solution) was 7.3 cm. For the same molecule, the “Length, sprout, + % to control” value ([1]; 1·10^−11% solution) was 1%, the Mass, dry, root ([1]; 1·10^−11% solution) was 0.63 g/100 plantlings and the “Mass, dry, root, + % to control” value ([1]; 1·10^−11% solution) was 10.5%. The Mass, dry, sprout ([1]; 1·10^−11% solution) was 0.74 g/100 plantlings, the “Mass, dry, sprout, + % to control” value ([1]; 1·10^−11% solution) was 16% and the Mass, wet, root ([1]; 1·10^−11% solution) was 2.8 g/100 plantlings. The “Mass, wet, root, + % to control” value ([1]; 1·10^−11% solution) was 8%, the Mass, wet, sprout ([1]; 1·10^−11% solution) was 4.92 g/100 plantlings and the “Mass, wet, sprout, + % to control” value ([1]; 1·10^−11% solution) was 3%. For the same molecule, the Length, root ([1]; 1·10^−12% solution) was 10.1 cm, the “Length, root, + % to control” value ([1]; 1·10^−12% solution) was 4% and the Length, sprout ([1]; 1·10^−12% solution) was 7.2 cm. The “Length, sprout, + % to control” value ([1]; 1·10^−12% solution) was 0%, the Mass, dry, root ([1]; 1·10^−12% solution) was 0.62 g/100 plantlings and the “Mass, dry, root, + % to control” value ([1]; 1·10^−12% solution) was 9%. The Mass, dry, sprout ([1]; 1·10^−12% solution) was 0.63 g/100 plantlings, the “Mass, dry, sprout, + % to control” value ([1]; 1·10^−12% solution) was −1% and the Mass, wet, root ([1]; 1·10^−12% solution) was 2.65 g/100 plantlings. For the same molecule, the “Mass, wet, root, + % to control” value ([1]; 1·10^−12% solution) was 2%, the Mass, wet, sprout ([1]; 1·10^−12% solution) was 4.90 g/100 plantlings and the “Mass, wet, sprout, + % to control” value ([1]; 1·10^−12% solution) was 3%. For the same molecule, the Length, root [1, 2] was 9.5 cm, the “Length, root, + % to control” value [1, 2] was 9% and the Length, sprout [1, 2] was 6.3 cm. The “Length, sprout, + % to control” value [1, 2] was 2%, the Mass, dry, root [1, 2] was 0.68 g/100 plantlings and the “Mass, dry, root, + % to control” value [1, 2] was 10%. The Mass, dry, sprout [1, 2] was 0.55 g/100 plantlings, the “Mass, dry, sprout, + % to control” value [1, 2] was 8% and the Mass, wet, root [1, 2] was 5.18 g/100 plantlings. The “Mass, wet, root, + % to control” value [1, 2] was 43%, the Mass, wet, sprout [1, 2] was 4.91 g/100 plantlings and the “Mass, wet, sprout, + % to control” value [1, 2] was 24%. For the same molecule, the “Germination energy, %” value (rice (Diamant variety); [3]) was 89.5%, the “Germination rate, %” value (rice (Diamant variety); [3]) was 96.5% and the Germination energy (rice (Diamant variety); 1·10^−6% solution) was 83.0%. It also gave a Germination rate (rice (Diamant variety); 1·10^−6% solution) of 89.0%, a Germination energy (rice (Diamant variety); 1·10^−7% solution) of 85.0% and a Germination rate (rice (Diamant variety); 1·10^−7% solution) of 91.7%. The Germination energy (rice (Diamant variety); 1·10^−8% solution) was 86.3%, the Germination rate (rice (Diamant variety); 1·10^−8% solution) was 94.3% and the Germination energy (rice (Diamant variety); 1·10^−9% solution) was 88.7%. The Germination rate (rice (Diamant variety); 1·10^−9% solution) was 96.0%, the Germination energy (rice (Diamant variety); 1·10^−10% solution) was 87.0% and the Germination rate (rice (Diamant variety); 1·10^−10% solution) was 94.0%. For the same molecule, the Germination energy (rice (Diamant variety); 1·10^−11% solution) was 85.7%, the Germination rate (rice (Diamant variety); 1·10^−11% solution) was 91.3% and the Germination energy (rice (Diamant variety); 1·10^−12% solution) was 83.7%. It also gave a Germination rate (rice (Diamant variety); 1·10^−12% solution) of 89.0%, a Germination energy (rice (Diamant variety); [4]) of 89.5% and a Germination rate (rice (Diamant variety); [4]) of 96.5%.

— US10781224B2, “Bis(oxymethyl)phosphinic acid and biogenic metal salts thereof as regulators of plant growth and development” (priority 2016, dated 2020)
